Laboratory results from EP4786474A1, “CRYSTALLINE FORM OF QUINAZOLINE DERIVATIVE AND PREPARATION METHOD THEREFOR” (Jiangsu Hengrui Pharmaceuticals Co., Ltd., priority 2023, dated 2025).

Assays:
Type in all cases: physicochemical
[1] = DVS (dynamic vapor sorption) hygroscopicity testing
Excerpt: According to the description of hygroscopicity characteristics and the definition of hygroscopic weight gain in "General Rule 9103, Guidelines for Hygroscopicity Trials for Pharmaceuticals" in the Chinese Pharmacopoeia, Volume IV, 2015 Edition: • deliquescent: sufficient water is absorbed to form a liquid; • extremely hygroscopic: the hygroscopic weight gain is not less than 15%; • hygroscopic: the hygroscopic weight gain is less than 15% but not less than 2%; • slightly hygroscopic: the hygroscopic weight gain is less than 2% but not less than 0.2%; • nonhygroscopic or practically nonhygroscopic: the hygroscopic weight gain is less than 0.2%.
DVS refers to dynamic vapor sorption: The analysis was performed using SMS DVS Advantage; at 25 °C, the humidity was changed as follows: 50%-95%-0%-95%-50%, in steps of 10% (5% for the last step) (specific humidity ranges are shown in corresponding patterns, and those listed here were used in most cases); the criterion was dm/dt being not greater than 0.002%.

[2] = Long-term/accelerated stability; conditions: for physical and chemical stability: long-term/accelerated conditions
Procedure: Samples of the crystal forms D, E, and H were left to stand under 25 °C/60% RH and 40 °C/75% RH conditions to investigate their stability: Table 30.

[3] = Influencing factor stability study; conditions: for physical and chemical stability: light exposure (4500 Lux), high temperature (40 °C and 60 °C), high humidity (RH 75% and RH 92.5%), 30 days
Procedure: Samples of the crystal forms D, E, and H were spread in open containers and left to stand under light exposure (4500 Lux), high temperature (40 °C and 60 °C), and high humidity (RH 75% and RH 92.5%) conditions for 1 month to investigate their stability.

[4] = accelerated experimental conditions, 70% RH
[5] = normal storage conditions, 25 °C and 60% RH

C=CC(=O)N1[C@@H]2CC[C@H]1C[C@@H](Oc1ccc3ncnc(Nc4ccc(Oc5ccn6ncnc6c5)c(C)c4F)c3c1)C2 [Crystal form D, 1-(endo-3-((4-((4-([1,2,4]Triazolo[1,5-a]pyridin-7-yloxy)-2-fluoro-3-methylphenyl)amino)quinazolin-6-yl)oxy)-8-azabicyclo[3.2.1]octan-8-yl)prop-2-en-1-one]
hygroscopic weight gain [1, 4]: about 3.23%
crystal form re-identified after DVS testing [1]: the crystal form did not change
hygroscopic weight gain ([1]; extreme conditions, 90% RH): about 3.52%
hygroscopic weight gain [1, 5]: about 3.07%
Color and appearance ([2]; 25 °C/60% RH, 1 month): White powder
Crystal form ([2]; 25 °C/60% RH, 1 month): No change
Color and appearance ([2]; 25 °C/60% RH, 2 months): White powder
Crystal form ([2]; 25 °C/60% RH, 2 months): No change
Color and appearance ([2]; 25 °C/60% RH, 3 months): White powder
Crystal form ([2]; 25 °C/60% RH, 3 months): No change
Color and appearance ([2]; 25 °C/60% RH, 6 months): White powder
Crystal form ([2]; 25 °C/60% RH, 6 months): No change
Color and appearance ([2]; 25 °C/60% RH, 14 days): White powder
Crystal form ([2]; 25 °C/60% RH, 14 days): No change
Color and appearance ([2]; 40 °C/75% RH, 1 month): White powder
Crystal form ([2]; 40 °C/75% RH, 1 month): No change
Color and appearance ([2]; 40 °C/75% RH, 2 months): White powder
Crystal form ([2]; 40 °C/75% RH, 2 months): No change
Color and appearance ([2]; 40 °C/75% RH, 3 months): White powder
Crystal form ([2]; 40 °C/75% RH, 3 months): No change
Color and appearance ([2]; 40 °C/75% RH, 6 months): White powder
Crystal form ([2]; 40 °C/75% RH, 6 months): No change
Color and appearance ([2]; 40 °C/75% RH, 14 days): White powder
Crystal form ([2]; 40 °C/75% RH, 14 days): No change
Color and appearance ([2]; Initial, 0): White powder
Crystal form ([2]; Initial, 0): Crystal form D
physical and chemical stability [2]: Conclusion: Under long-term/accelerated conditions, the crystal form D exhibited good physical and chemical stability.
Color and appearance ([3]; 40 °C, 1 month): White powder
Crystal form ([3]; 40 °C, 1 month): No change
Purity (%) ([3]; 40 °C, 1 month): 99.0%
Color and appearance ([3]; 40 °C, 7 days): White powder
Crystal form ([3]; 40 °C, 7 days): No change
Color and appearance ([3]; 40 °C, 13 days): White powder
Crystal form ([3]; 40 °C, 13 days): No change
Purity (%) ([3]; 40 °C, 13 days): 99.4%
Color and appearance ([3]; 60 °C, 1 month): White powder
Crystal form ([3]; 60 °C, 1 month): No change
Purity (%) ([3]; 60 °C, 1 month): 99.2%
Color and appearance ([3]; 60 °C, 7 days): White powder
Crystal form ([3]; 60 °C, 7 days): No change
Color and appearance ([3]; 60 °C, 13 days): White powder
Crystal form ([3]; 60 °C, 13 days): No change
Purity (%) ([3]; 60 °C, 13 days): 99.4%
Color and appearance ([3]; 75% RH, 1 month): White powder
Crystal form ([3]; 75% RH, 1 month): No change
Color and appearance ([3]; 75% RH, 13 days): White powder
Crystal form ([3]; 75% RH, 13 days): No change
Color and appearance ([3]; 92.5% RH, 1 month): White powder
Crystal form ([3]; 92.5% RH, 1 month): No change
Color and appearance ([3]; 92.5% RH, 13 days): White powder
Crystal form ([3]; 92.5% RH, 13 days): No change
Color and appearance ([3]; 4500 Lux, 1 month): White powder
Crystal form ([3]; 4500 Lux, 1 month): No change
Purity (%) ([3]; 4500 Lux, 1 month): 99.2%
Color and appearance ([3]; 4500 Lux, 7 days): White powder
Crystal form ([3]; 4500 Lux, 7 days): No change
Purity (%) ([3]; 4500 Lux, 7 days): 99.4%
Color and appearance ([3]; 4500 Lux, 13 days): White powder
Crystal form ([3]; 4500 Lux, 13 days): No change
Purity (%) ([3]; 4500 Lux, 13 days): 99.3%
Color and appearance ([3]; Initial, 0): White powder
Crystal form ([3]; Initial, 0): Crystal form D
physical and chemical stability [3]: Conclusion: Standing under light exposure (4500 Lux), high temperature (40 °C and 60 °C), and high humidity (RH 75% and RH 92.5%) conditions for 30 days, the crystal form D exhibited good physical and chemical stability.

C=CC(=O)N1[C@@H]2CC[C@H]1C[C@@H](Oc1ccc3ncnc(Nc4ccc(Oc5ccn6ncnc6c5)c(C)c4F)c3c1)C2 [Crystal form E, 1-(endo-3-((4-((4-([1,2,4]Triazolo[1,5-a]pyridin-7-yloxy)-2-fluoro-3-methylphenyl)amino)quinazolin-6-yl)oxy)-8-azabicyclo[3.2.1]octan-8-yl)prop-2-en-1-one]
hygroscopic weight gain [1, 4]: about 0.15%
crystal form re-identified after DVS testing [1]: the crystal form did not change
hygroscopic weight gain ([1]; extreme conditions, 90% RH): about 0.25%
hygroscopic weight gain [1, 5]: about 0.11%
Color and appearance ([2]; 25 °C/60% RH, 1 month): White powder
Crystal form ([2]; 25 °C/60% RH, 1 month): No change
Color and appearance ([2]; 25 °C/60% RH, 2 months): White powder
Crystal form ([2]; 25 °C/60% RH, 2 months): No change
Color and appearance ([2]; 25 °C/60% RH, 3 months): White powder
Crystal form ([2]; 25 °C/60% RH, 3 months): No change
Color and appearance ([2]; 25 °C/60% RH, 6 months): White powder
Crystal form ([2]; 25 °C/60% RH, 6 months): No change
Color and appearance ([2]; 25 °C/60% RH, 14 days): White powder
Crystal form ([2]; 25 °C/60% RH, 14 days): No change
Color and appearance ([2]; 40 °C/75% RH, 1 month): White powder
Crystal form ([2]; 40 °C/75% RH, 1 month): No change
Color and appearance ([2]; 40 °C/75% RH, 2 months): White powder
Crystal form ([2]; 40 °C/75% RH, 2 months): No change
Color and appearance ([2]; 40 °C/75% RH, 3 months): White powder
Crystal form ([2]; 40 °C/75% RH, 3 months): No change
Color and appearance ([2]; 40 °C/75% RH, 6 months): White powder
Crystal form ([2]; 40 °C/75% RH, 6 months): No change
Color and appearance ([2]; 40 °C/75% RH, 14 days): White powder
Crystal form ([2]; 40 °C/75% RH, 14 days): No change
Color and appearance ([2]; Initial, 0): White powder
Crystal form ([2]; Initial, 0): Crystal form E
physical and chemical stability [2]: Conclusion: Under long-term/accelerated conditions, the crystal form E exhibited good physical and chemical stability.
Color and appearance ([3]; 40 °C, 1 month): White powder
Crystal form ([3]; 40 °C, 1 month): No change
Purity (%) ([3]; 40 °C, 1 month): 99.3%
Color and appearance ([3]; 40 °C, 7 days): White powder
Crystal form ([3]; 40 °C, 7 days): No change
Color and appearance ([3]; 40 °C, 14 days): White powder
Crystal form ([3]; 40 °C, 14 days): No change
Color and appearance ([3]; 60 °C, 1 month): White powder
Crystal form ([3]; 60 °C, 1 month): No change
Color and appearance ([3]; 60 °C, 7 days): White powder
Crystal form ([3]; 60 °C, 7 days): No change
Color and appearance ([3]; 60 °C, 14 days): White powder
Crystal form ([3]; 60 °C, 14 days): No change
Color and appearance ([3]; 75% RH, 1 month): White powder
Crystal form ([3]; 75% RH, 1 month): No change
Color and appearance ([3]; 75% RH, 7 days): White powder
Crystal form ([3]; 75% RH, 7 days): No change
Color and appearance ([3]; 75% RH, 14 days): White powder
Crystal form ([3]; 75% RH, 14 days): No change
Color and appearance ([3]; 92.5% RH, 1 month): White powder
Crystal form ([3]; 92.5% RH, 1 month): No change
Color and appearance ([3]; 92.5% RH, 7 days): White powder
Crystal form ([3]; 92.5% RH, 7 days): No change
Color and appearance ([3]; 92.5% RH, 14 days): White powder
Crystal form ([3]; 92.5% RH, 14 days): No change
Color and appearance ([3]; 4500 Lux, 1 month): White powder
Crystal form ([3]; 4500 Lux, 1 month): No change
Purity (%) ([3]; 4500 Lux, 1 month): 99.4%
Color and appearance ([3]; 4500 Lux, 7 days): White powder
Crystal form ([3]; 4500 Lux, 7 days): No change
Color and appearance ([3]; 4500 Lux, 14 days): White powder
Crystal form ([3]; 4500 Lux, 14 days): No change
Color and appearance ([3]; Initial, 0): White powder
Crystal form ([3]; Initial, 0): Crystal form E
physical and chemical stability [3]: Conclusion: Standing under light exposure (4500 Lux), high temperature (40 °C and 60 °C), and high humidity (RH 75% and RH 92.5%) conditions for 30 days, the crystal form E exhibited good physical and chemical stability.
